Measurements from ChEMBL document CHEMBL3045910, “Novel molluscicide against Pomacea canaliculata based on quinoa (Chenopodium quinoa) saponins” (Crop Prot, 2008).
The source made the active and inactive calls. No cut-off for these calls is given here.

How the values were obtained:
[1] = Toxicity against Oreochromis sp. under laboratory conditions assessed as mortality at 54 ppm measured after 24 hr; type: organism-based; conditions: in vivo
[2] = Toxicity against Oreochromis sp. under laboratory conditions assessed as mortality at 40 ppm measured after 24 hr; type: organism-based; conditions: in vivo
[3] = system: Pomacea canaliculata; test: Molluscicidal activity against Pomacea canaliculata under laboratory conditions assessed as mortality at 33 ppm after 24 hr; type: functional
[4] = system: Pomacea canaliculata; test: Molluscicidal activity against Pomacea canaliculata under laboratory conditions assessed as mortality at 40 ppm after 24 hr; type: functional
[5] = system: Pomacea canaliculata; test: Molluscicidal activity against Pomacea canaliculata under laboratory conditions assessed as mortality at 23 ppm after 24 hr; type: functional
[6] = system: Pomacea canaliculata; test: Molluscicidal activity against Pomacea canaliculata under laboratory conditions assessed as mortality at 17 ppm after 24 hr; type: functional
[7] = Toxicity against Oreochromis sp. under laboratory conditions assessed as mortality at 33 ppm measured after 24 hr; type: organism-based; conditions: in vivo
[8] = Toxicity against Oreochromis sp. under laboratory conditions assessed as mortality at 23 ppm measured after 24 hr; type: organism-based; conditions: in vivo
[9] = Toxicity against Oreochromis sp. under laboratory conditions assessed as mortality at 10 ppm measured after 24 hr; type: organism-based; conditions: in vivo
[10] = Toxicity against Oreochromis sp. under laboratory conditions assessed as mortality at 17 ppm measured after 24 hr; type: organism-based; conditions: in vivo
[11] = Toxicity against Oreochromis sp. under laboratory conditions assessed as mortality at 5 ppm measured after 24 hr; type: organism-based; conditions: in vivo
[12] = Toxicity against Carassius auratus under laboratory conditions assessed as mortality at 54 ppm measured after 96 hr; type: organism-based; conditions: in vivo
[13] = Toxicity against Carassius auratus under laboratory conditions assessed as mortality at 33 ppm measured after 96 hr; type: organism-based; conditions: in vivo
[14] = Toxicity against Carassius auratus under laboratory conditions assessed as mortality at 40 ppm measured after 96 hr; type: organism-based; conditions: in vivo
[15] = Toxicity against Carassius auratus under laboratory conditions assessed as mortality at 23 ppm measured after 96 hr; type: organism-based; conditions: in vivo
[16] = Toxicity against Carassius auratus under laboratory conditions assessed as mortality at 17 ppm measured after 96 hr; type: organism-based; conditions: in vivo
[17] = Toxicity against Carassius auratus under laboratory conditions assessed as mortality at 10 ppm measured after 96 hr; type: organism-based; conditions: in vivo
[18] = Toxicity against Carassius auratus under laboratory conditions assessed as mortality at 54 ppm measured after 48 hr; type: organism-based; conditions: in vivo
[19] = Toxicity against Carassius auratus under laboratory conditions assessed as mortality at 5 ppm measured after 96 hr; type: organism-based; conditions: in vivo
[20] = Toxicity against Carassius auratus under laboratory conditions assessed as mortality at 40 ppm measured after 48 hr; type: organism-based; conditions: in vivo
[21] = Toxicity against Carassius auratus under laboratory conditions assessed as mortality at 33 ppm measured after 48 hr; type: organism-based; conditions: in vivo
[22] = Toxicity against Carassius auratus under laboratory conditions assessed as mortality at 23 ppm measured after 48 hr; type: organism-based; conditions: in vivo
[23] = Toxicity against Carassius auratus under laboratory conditions assessed as mortality at 17 ppm measured after 48 hr; type: organism-based; conditions: in vivo
[24] = Toxicity against Carassius auratus under laboratory conditions assessed as mortality at 5 ppm measured after 48 hr; type: organism-based; conditions: in vivo
[25] = Toxicity against Carassius auratus under laboratory conditions assessed as mortality at 10 ppm measured after 48 hr; type: organism-based; conditions: in vivo
[26] = Toxicity against Carassius auratus under laboratory conditions assessed as mortality at 54 ppm measured after 24 hr; type: organism-based; conditions: in vivo
[27] = Toxicity against Carassius auratus under laboratory conditions assessed as mortality at 40 ppm measured after 24 hr; type: organism-based; conditions: in vivo
[28] = Toxicity against Carassius auratus under laboratory conditions assessed as mortality at 33 ppm measured after 24 hr; type: organism-based; conditions: in vivo
[29] = Toxicity against Carassius auratus under laboratory conditions assessed as mortality at 17 ppm measured after 24 hr; type: organism-based; conditions: in vivo
[30] = Toxicity against Carassius auratus under laboratory conditions assessed as mortality at 23 ppm measured after 24 hr; type: organism-based; conditions: in vivo
[31] = Toxicity against Carassius auratus under laboratory conditions assessed as mortality at 10 ppm measured after 24 hr; type: organism-based; conditions: in vivo
[32] = Toxicity against Carassius auratus under laboratory conditions assessed as mortality at 5 ppm measured after 24 hr; type: organism-based; conditions: in vivo
[33] = system: Pomacea canaliculata; test: Molluscicidal activity against Pomacea canaliculata under laboratory conditions assessed as mortality at 54 ppm after 24 hr; type: functional
[34] = system: Pomacea canaliculata; test: Molluscicidal activity against Pomacea canaliculata under laboratory conditions assessed as mortality at 10 ppm after 24 hr; type: functional
[35] = system: Pomacea canaliculata; test: Molluscicidal activity against Pomacea canaliculata under laboratory conditions assessed as mortality at 5 ppm after 24 hr; type: functional
[36] = system: Pomacea canaliculata; test: Molluscicidal activity against Pomacea canaliculata infested rice field assessed as mortality at 19 to 27 ppm after 24 hr; type: functional, organism-based
[37] = Toxicity against Oreochromis sp. under laboratory conditions assessed as mortality at 54 ppm measured after 96 hr; type: organism-based; conditions: in vivo
[38] = Toxicity against Oreochromis sp. under laboratory conditions assessed as mortality at 40 ppm measured after 96 hr; type: organism-based; conditions: in vivo
[39] = Toxicity against Oreochromis sp. under laboratory conditions assessed as mortality at 33 ppm measured after 96 hr; type: organism-based; conditions: in vivo
[40] = Toxicity against Oreochromis sp. under laboratory conditions assessed as mortality at 23 ppm measured after 96 hr; type: organism-based; conditions: in vivo
[41] = Toxicity against Oreochromis sp. under laboratory conditions assessed as mortality at 10 ppm measured after 96 hr; type: organism-based; conditions: in vivo
[42] = Toxicity against Oreochromis sp. under laboratory conditions assessed as mortality at 17 ppm measured after 96 hr; type: organism-based; conditions: in vivo
[43] = Toxicity against Oreochromis sp. under laboratory conditions assessed as mortality at 5 ppm measured after 96 hr; type: organism-based; conditions: in vivo

CC1(C)CC[C@]2(C(=O)O)CC[C@]3(C)C(=CC[C@@H]4[C@@]5(C)CC[C@H](O)C(C)(C)[C@@H]5CC[C@]43C)[C@@H]2C1 [OLEANOLIC_ACID]
mortality at 24 h, 54 ppm [1]: 0% | mortality at 24 h, 40 ppm [2]: 0% | mortality at 33 ppm [3]: 100% | mortality at 40 ppm [4]: 100% | mortality at 23 ppm [5]: 75% | mortality at 17 ppm [6]: 75% | mortality at 24 h, 33 ppm [7]: 0% | mortality at 24 h, 23 ppm [8]: 0% | mortality at 24 h, 10 ppm [9]: 0% | mortality at 24 h, 17 ppm [10]: 0% | mortality at 24 h, 5 ppm [11]: 0% | mortality at 96 h, 54 ppm [12]: 0% | mortality at 96 h, 33 ppm [13]: 0% | mortality at 96 h, 40 ppm [14]: 0% | mortality at 96 h, 23 ppm [15]: 0% | mortality at 96 h, 17 ppm [16]: 0% | mortality at 96 h, 10 ppm [17]: 0% | mortality at 48 h, 54 ppm [18]: 0% | mortality at 96 h, 5 ppm [19]: 0% | mortality at 48 h, 40 ppm [20]: 0% | mortality at 48 h, 33 ppm [21]: 0% | mortality at 48 h, 23 ppm [22]: 0% | mortality at 48 h, 17 ppm [23]: 0% | mortality at 48 h, 5 ppm [24]: 0% | mortality at 48 h, 10 ppm [25]: 0% | mortality at 24 h, 54 ppm [26]: 0% | mortality at 24 h, 40 ppm [27]: 0% | mortality at 24 h, 33 ppm [28]: 0% | mortality at 24 h, 17 ppm [29]: 0% | mortality at 24 h, 23 ppm [30]: 0% | mortality at 24 h, 10 ppm [31]: 0% | mortality at 24 h, 5 ppm [32]: 0% | mortality at 54 ppm [33]: 100% | mortality at 10 ppm [34]: 50% | mortality at 5 ppm [35]: 0% | mortality [36]: Active | mortality at 96 h, 54 ppm [37]: 0% | mortality at 96 h, 40 ppm [38]: 0% | mortality at 96 h, 33 ppm [39]: 0% | mortality at 96 h, 23 ppm [40]: 0% | mortality at 96 h, 10 ppm [41]: 0% | mortality at 96 h, 17 ppm [42]: 0% | mortality at 96 h, 5 ppm [43]: 0%

CC1(C)CC[C@]2(C(=O)O)CC[C@]3(C)C(=CC[C@@H]4[C@@]5(C)CC[C@H](O)[C@@](C)(CO)[C@@H]5CC[C@]43C)[C@@H]2C1 [HEDERAGENIN]
mortality at 24 h, 54 ppm [1]: 0% | mortality at 24 h, 40 ppm [2]: 0% | mortality at 33 ppm [3]: 100% | mortality at 40 ppm [4]: 100% | mortality at 23 ppm [5]: 75% | mortality at 17 ppm [6]: 75% | mortality at 24 h, 33 ppm [7]: 0% | mortality at 24 h, 23 ppm [8]: 0% | mortality at 24 h, 10 ppm [9]: 0% | mortality at 24 h, 17 ppm [10]: 0% | mortality at 24 h, 5 ppm [11]: 0% | mortality at 96 h, 54 ppm [12]: 0% | mortality at 96 h, 33 ppm [13]: 0% | mortality at 96 h, 40 ppm [14]: 0% | mortality at 96 h, 23 ppm [15]: 0% | mortality at 96 h, 17 ppm [16]: 0% | mortality at 96 h, 10 ppm [17]: 0% | mortality at 48 h, 54 ppm [18]: 0% | mortality at 96 h, 5 ppm [19]: 0% | mortality at 48 h, 40 ppm [20]: 0% | mortality at 48 h, 33 ppm [21]: 0% | mortality at 48 h, 23 ppm [22]: 0% | mortality at 48 h, 17 ppm [23]: 0% | mortality at 48 h, 5 ppm [24]: 0% | mortality at 48 h, 10 ppm [25]: 0% | mortality at 24 h, 54 ppm [26]: 0% | mortality at 24 h, 40 ppm [27]: 0% | mortality at 24 h, 33 ppm [28]: 0% | mortality at 24 h, 17 ppm [29]: 0% | mortality at 24 h, 23 ppm [30]: 0% | mortality at 24 h, 10 ppm [31]: 0% | mortality at 24 h, 5 ppm [32]: 0% | mortality at 54 ppm [33]: 100% | mortality at 10 ppm [34]: 50% | mortality at 5 ppm [35]: 0% | mortality [36]: Active | mortality at 96 h, 54 ppm [37]: 0% | mortality at 96 h, 40 ppm [38]: 0% | mortality at 96 h, 33 ppm [39]: 0% | mortality at 96 h, 23 ppm [40]: 0% | mortality at 96 h, 10 ppm [41]: 0% | mortality at 96 h, 17 ppm [42]: 0% | mortality at 96 h, 5 ppm [43]: 0%
